{"source": "patent US20260007746A1", "about": "“COMPOSITIONS AND METHODS FOR TREATMENT OF INFLAMMATORY DISORDERS” (priority 2020, published 2026)", "tested_on": "ConA-stimulated splenocytes", "experiment": "Mitogen proliferative assay (MSC:splenocyte co-culture, BrdU)", "format": "cell-based, mouse", "conditions": "mAdMSC:splenocyte 1:20 and 1:10; with or without HA or E-selectin pre-incubation", "experimental": "Mitogen proliferative assays were performed as described previously (Yañez et al., 2006; Yanez et al., 2010). Briefly, splenocytes were isolated from C57BL/6 and BALB/c mice spleen cell suspensions by passage through 40-μm nylon cell strainers (Becton Dickinson), followed by red blood lysis with 0.83% ammonium chloride in 0.01 M Tris-HCl buffer pH 7.5 (Sigma-Aldrich). To induce splenocyte proliferation, 1×10^5 splenocytes were resuspended in RPMI 1640 medium (Gibco, Carlsbad, CA, United States) supplemented with 10% FBS (proliferation medium) and treated with 10 μg/ml concanavalin A (ConA) (Sigma-Aldrich). To assess for effect(s) on splenocyte proliferation, MSCs were resuspended in complete medium and seeded in wells together with splenocytes at decreasing ratios of MSC:splenocyte (from 1:1 to 1:100). After 3 days of MSC:splenocyte co-cultures, splenocyte proliferation was measured using an ELISA BrdU colorimetric kit (Roche Diagnostics). In brief, BrdU labeling reagent was added to wells 16 h before determination. Then, cells were fixed, DNA denatured and incubated with an anti-BrdU-POD antibody. After washing and substrate addition, absorbance was measured. In some experiments, UmAdMSCs and FucmAdMSCs, or FuchAdMSCs and FuchBMMSCs, were treated with sialidase from Vibrio cholerae (0.1 U/ml, Roche Diagnostics) to remove terminal sialic acids (i.e., sialUmAdMSCs and sialFucmAdMSCs, or sialFuchAdMSCs and sialFuchBMMSCs). As indicated, mMSCs or hMSCs were cultured for 24 h or 72 h with different concentrations of mE-Ig chimera or of hyaluronic acid (HA, from rooster comb; Sigma-Aldrich) for 24 h or 72 h following described protocols (Burdick et al., 2006; Thankamony and Sackstein, 2011). Briefly, mE-Ig or HA were immobilized on plates. […] In some experiments, cultures of mAdMSCs seeded on E-selectin and/or HA for 72 h were washed, then co-cultured in presence of continuous E-selectin and/or HA with murine splenocytes (at MSC:splenocyte ratio of 1:20) for 72 h in presence of ConA, and splenocyte proliferation was assessed. […]"}
{"smiles": "Cn1cc(CC(N)C(=O)O)c2ccccc21", "note": "(racemic) [1-methyl-DL-tryptophan]", "values": [{"measurement": "proliferation of mitogen-stimulated splenocytes in mAdMSC co-cultures with inhibitor", "result": "significantly rescued the proliferation"}]}
{"smiles": "NC(=O)c1ccc(-c2nc(-c3ccc4c(c3)OCO4)c(-c3ccccn3)[nH]2)cc1", "note": "[SB-431542]", "values": [{"measurement": "proliferation of mitogen-stimulated splenocytes in mAdMSC co-cultures with inhibitor", "result": "significantly rescued the proliferation"}]}
{"smiles": "CNC(=N)NCCC[C@H](N)C(=O)O", "note": "[N^G-monomethyl-L-arginine]", "values": [{"measurement": "proliferation of mitogen-stimulated splenocytes in mAdMSC co-cultures with inhibitor", "result": "significantly rescued the proliferation"}]}
